Laboratory results as given in US20060241301A1, “Urea derivatives and their use as tyrosinkinase inhibitors” (priority 2003, published 2006).
pIC50: −log10 of the molar value.

What was measured:
RAF = RAF kinase inhibition; type: biochemical
TIE-2 = TIE-2 (Homo sapiens, UniProt Q02763); assay: TIE-2 kinase flashplate assay (phosphorylation of poly(Glu, Tyr), 33P-ATP); type: biochemical; settings: read-out: Inhibition by TIE-2 IC50
Protocol: The TIE-2 tests can be carried out, for example, analogously to the methods indicated in WO 02/44156.
The assay determines the inhibiting activity of the substances to be tested in the phosphorylation of the substrate poly(Glu, Tyr) by Tie-2 kinase in the presence of radioactive ^33P-ATP. The phosphorylated substrate binds to the surface of a “flashplate” microtitre plate during the incubation time. After removal of the reaction mixture, the microtitre plate is washed a number of times and the radioactivity on its surface is subsequently measured. An inhibiting effect of the substances to be measured results in lower radioactivity compared with an undisturbed enzymatic reaction.

TIE-2, sequence (Q02763 23-1124, species assumed): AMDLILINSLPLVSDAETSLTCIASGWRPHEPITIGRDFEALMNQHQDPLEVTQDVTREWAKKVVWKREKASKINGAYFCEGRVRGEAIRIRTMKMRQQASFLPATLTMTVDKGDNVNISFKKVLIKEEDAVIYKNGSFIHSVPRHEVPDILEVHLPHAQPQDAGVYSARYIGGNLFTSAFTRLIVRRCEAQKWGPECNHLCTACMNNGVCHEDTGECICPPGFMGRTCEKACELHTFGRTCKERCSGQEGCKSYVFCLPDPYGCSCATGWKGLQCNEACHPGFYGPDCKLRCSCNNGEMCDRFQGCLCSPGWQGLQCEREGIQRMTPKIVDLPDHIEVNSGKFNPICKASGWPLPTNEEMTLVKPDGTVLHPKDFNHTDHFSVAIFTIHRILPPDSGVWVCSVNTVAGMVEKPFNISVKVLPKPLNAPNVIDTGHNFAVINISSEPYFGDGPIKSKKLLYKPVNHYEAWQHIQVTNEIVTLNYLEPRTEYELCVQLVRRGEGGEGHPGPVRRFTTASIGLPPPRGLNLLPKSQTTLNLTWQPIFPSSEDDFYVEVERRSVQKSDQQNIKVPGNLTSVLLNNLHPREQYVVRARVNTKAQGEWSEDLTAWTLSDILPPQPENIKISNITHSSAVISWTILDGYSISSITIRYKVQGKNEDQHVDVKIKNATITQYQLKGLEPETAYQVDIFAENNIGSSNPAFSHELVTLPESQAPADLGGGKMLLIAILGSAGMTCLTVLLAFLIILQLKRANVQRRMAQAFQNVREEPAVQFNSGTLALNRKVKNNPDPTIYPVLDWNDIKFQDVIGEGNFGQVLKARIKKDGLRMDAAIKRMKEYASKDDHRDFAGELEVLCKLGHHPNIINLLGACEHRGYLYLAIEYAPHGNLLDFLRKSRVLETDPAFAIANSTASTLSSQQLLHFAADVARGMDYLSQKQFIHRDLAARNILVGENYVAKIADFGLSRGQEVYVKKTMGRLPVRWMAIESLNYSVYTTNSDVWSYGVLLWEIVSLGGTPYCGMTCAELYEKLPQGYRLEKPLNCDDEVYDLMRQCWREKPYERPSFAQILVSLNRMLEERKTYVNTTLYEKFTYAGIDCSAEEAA

pIC50 (TIE-2) | SMILES | pIC50 (RAF)
 | CNC(=O)c1cc(Oc2ccc(NC(=O)Nc3ccc(Cl)c(C(F)(F)F)c3)cc2)ccn1 | 6.58
7.24 | O=C(Nc1ccc(Oc2ccc3nsnc3c2)cc1)Nc1cc(C(F)(F)F)ccc1F [A1, 1-[4-(Benzo-1,2,5-thiadiazol-5-yloxy)phenyl]-3-(2-fluoro-5-trifluoromethylphenyl)urea] | 6.66
7.49 | CNC(=O)c1cc(Oc2ccc(NC(=O)Nc3cc(C(F)(F)F)ccc3F)cc2)ccn1 [No. 2, N-methyl-4-{4-[3-(fluorotrifluoromethylphenyl)ureido]phenoxy}pyridine-2-carboxamide] | 
